From paper PMC9873571, “Plant-specific features of respiratory supercomplex I + III2 from Vigna radiata” (Nature Plants, 2022)

Key:
[1] = molecular target: T1, V. radiata SC I + III2 (complex I, quinone-binding site) (Vigna radiata, UniProt A0A1S3U8J5+E9KZL0+E9KZN6); test: NADH-cytochrome c oxidoreductase activity, A550; type: biochemical; details: 20 mM HEPES pH 7.4, 50 mM NaCl, 10% glycerol, 100 µM decylubiquinone, 100 µM equine cyt c, 10 µM NADH, 4 μM KCN
T1 construct: gene nad7; native complex I (14 core + 34 accessory subunits) in supercomplex I + III2, from etiolated hypocotyl mitochondria, digitonin-extracted, amphipol A8-35 stabilized, SEC purified; assayed as NADH-cyt c oxidoreductase; nad1 and NDUS2 transcripts RNA-edited

[2] = molecular target: T2, V. radiata complex I (CI), NADH dehydrogenase site (Vigna radiata, UniProt A0A1S3V7V2); test: NADH-cytochrome c oxidoreductase activity of purified SC I + III2; type: biochemical; details: 10 µM NADH, 100 µM decylubiquinone, 100 µM equine cyt c, pH 7.4
T2 construct: gene LOC106772405; native complex I, in purified supercomplex I + III2 (NADH) or in washed mitochondrial membranes (dNADH)
T2 sequence (A0A1S3V7V2 28-491): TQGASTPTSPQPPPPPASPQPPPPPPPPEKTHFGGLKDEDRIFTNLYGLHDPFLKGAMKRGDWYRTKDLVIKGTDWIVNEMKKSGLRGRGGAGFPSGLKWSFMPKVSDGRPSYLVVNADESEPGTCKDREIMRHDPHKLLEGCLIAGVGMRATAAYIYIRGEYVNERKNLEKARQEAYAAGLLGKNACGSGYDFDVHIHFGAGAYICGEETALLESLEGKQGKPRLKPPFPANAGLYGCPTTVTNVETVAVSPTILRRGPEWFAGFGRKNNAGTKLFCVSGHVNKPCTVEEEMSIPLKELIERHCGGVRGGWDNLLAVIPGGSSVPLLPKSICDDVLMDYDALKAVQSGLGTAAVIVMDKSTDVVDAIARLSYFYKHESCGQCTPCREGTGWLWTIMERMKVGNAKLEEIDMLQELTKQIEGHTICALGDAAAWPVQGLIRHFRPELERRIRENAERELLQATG
T2 sequence (A0A1S3TQ85 32-746 partner): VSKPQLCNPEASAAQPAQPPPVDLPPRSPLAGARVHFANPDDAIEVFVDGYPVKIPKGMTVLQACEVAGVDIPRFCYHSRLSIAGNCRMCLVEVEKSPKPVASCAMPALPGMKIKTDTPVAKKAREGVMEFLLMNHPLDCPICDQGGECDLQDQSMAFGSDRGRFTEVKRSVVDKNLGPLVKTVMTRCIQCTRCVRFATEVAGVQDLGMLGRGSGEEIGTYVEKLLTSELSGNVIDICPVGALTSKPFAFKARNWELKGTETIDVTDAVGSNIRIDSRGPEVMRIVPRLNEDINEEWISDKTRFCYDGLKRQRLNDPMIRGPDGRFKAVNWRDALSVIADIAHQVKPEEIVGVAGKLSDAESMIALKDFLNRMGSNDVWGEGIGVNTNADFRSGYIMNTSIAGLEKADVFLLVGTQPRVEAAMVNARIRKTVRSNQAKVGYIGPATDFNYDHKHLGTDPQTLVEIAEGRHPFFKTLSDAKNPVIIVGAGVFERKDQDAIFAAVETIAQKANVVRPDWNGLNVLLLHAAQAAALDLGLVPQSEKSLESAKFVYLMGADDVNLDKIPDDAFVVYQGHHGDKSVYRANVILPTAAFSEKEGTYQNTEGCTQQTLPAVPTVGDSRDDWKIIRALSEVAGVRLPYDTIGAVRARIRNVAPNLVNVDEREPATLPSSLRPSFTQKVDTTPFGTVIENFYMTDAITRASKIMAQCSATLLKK
T2 sequence (A0A1S3U769 25-251 partner): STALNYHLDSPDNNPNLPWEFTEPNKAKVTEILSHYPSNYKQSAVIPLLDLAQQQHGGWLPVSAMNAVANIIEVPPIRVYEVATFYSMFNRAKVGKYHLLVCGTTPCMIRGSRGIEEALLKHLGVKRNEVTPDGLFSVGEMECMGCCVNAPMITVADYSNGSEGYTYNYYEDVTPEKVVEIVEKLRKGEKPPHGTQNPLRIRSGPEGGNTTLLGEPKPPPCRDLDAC

T1 sequence (E9KZN6 entry or part of it): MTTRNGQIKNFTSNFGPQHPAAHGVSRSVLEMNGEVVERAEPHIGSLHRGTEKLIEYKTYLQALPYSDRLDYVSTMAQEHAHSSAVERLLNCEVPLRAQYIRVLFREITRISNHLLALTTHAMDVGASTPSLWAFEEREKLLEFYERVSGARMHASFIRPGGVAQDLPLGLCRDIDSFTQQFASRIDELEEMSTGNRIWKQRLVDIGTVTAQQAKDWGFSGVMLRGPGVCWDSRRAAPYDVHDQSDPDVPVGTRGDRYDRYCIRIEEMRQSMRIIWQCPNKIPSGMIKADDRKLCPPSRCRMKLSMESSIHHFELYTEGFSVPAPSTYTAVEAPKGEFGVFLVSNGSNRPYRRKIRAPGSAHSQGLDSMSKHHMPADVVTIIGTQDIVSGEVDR
T1 sequence (E9KZL0 entry or part of it): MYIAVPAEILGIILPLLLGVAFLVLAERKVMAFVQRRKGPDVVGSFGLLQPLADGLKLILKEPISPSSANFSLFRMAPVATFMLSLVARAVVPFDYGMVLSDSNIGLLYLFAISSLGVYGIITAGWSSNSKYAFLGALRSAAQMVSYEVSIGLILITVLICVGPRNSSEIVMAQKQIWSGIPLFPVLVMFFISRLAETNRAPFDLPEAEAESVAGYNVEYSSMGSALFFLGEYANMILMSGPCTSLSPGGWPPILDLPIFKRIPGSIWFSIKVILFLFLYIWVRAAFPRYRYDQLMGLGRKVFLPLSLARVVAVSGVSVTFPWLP
T1 sequence (A0A1S3U8J5 entry or part of it): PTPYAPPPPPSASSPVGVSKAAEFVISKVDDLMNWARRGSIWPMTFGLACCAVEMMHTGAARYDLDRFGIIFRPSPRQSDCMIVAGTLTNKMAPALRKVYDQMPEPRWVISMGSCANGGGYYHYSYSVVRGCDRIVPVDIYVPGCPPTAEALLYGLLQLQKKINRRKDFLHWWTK

Compound	inhibition at 20 μM [1]	NADH-cytochrome c oxidoreductase activity of purified SC I + III2 [2]
C/C=C(\C)[C@H](O)[C@H](C)/C=C(C)/C=C/C/C(C)=C/Cc1nc(OC)c(OC)c(O)c1C [piericidin A]	inhibited by CI and CIII2 inhibitors piericidin A and antimycin A, respectively	
NC(=O)C1=CN([C@@H]2O[C@H](COP(=O)(O)OP(=O)(O)OC[C@H]3O[C@@H](n4cnc5c(N)ncnc54)[C@H](O)[C@@H]3O)[C@@H](O)[C@H]2O)C=CC1 [NADH]		The final biochemical sample showed the expected NADH-cyt c oxidoreductase activity
